The target of series [1] is T1, M2 muscarinic acetylcholine receptor (Homo sapiens, UniProt P08172).
T1 sequence (P08172 1-466): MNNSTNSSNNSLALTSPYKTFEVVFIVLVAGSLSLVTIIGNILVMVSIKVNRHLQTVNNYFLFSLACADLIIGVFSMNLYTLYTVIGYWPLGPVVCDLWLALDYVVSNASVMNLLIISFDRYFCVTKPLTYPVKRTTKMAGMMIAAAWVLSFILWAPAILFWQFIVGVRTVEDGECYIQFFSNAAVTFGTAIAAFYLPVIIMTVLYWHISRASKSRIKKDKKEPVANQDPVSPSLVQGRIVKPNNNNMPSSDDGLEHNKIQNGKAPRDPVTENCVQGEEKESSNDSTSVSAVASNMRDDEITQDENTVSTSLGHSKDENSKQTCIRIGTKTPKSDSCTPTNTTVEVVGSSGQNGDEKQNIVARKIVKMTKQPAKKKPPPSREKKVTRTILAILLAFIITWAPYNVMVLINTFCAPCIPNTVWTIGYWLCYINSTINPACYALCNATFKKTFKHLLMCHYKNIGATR
Briefly: PDSP radioligand binding, M2. Particulars: read-out: % inhibition at 10 µM; single concentration 10 µM.

The target of series [2] is 5HT1B serotonergic receptor (Homo sapiens, UniProt P28222). Put plainly: PDSP radioligand binding, 5HT1B. Particulars: read-out: % inhibition at 10 µM; single concentration 10 µM.
Sequence of 5HT1B serotonergic receptor (P28222 whole entry): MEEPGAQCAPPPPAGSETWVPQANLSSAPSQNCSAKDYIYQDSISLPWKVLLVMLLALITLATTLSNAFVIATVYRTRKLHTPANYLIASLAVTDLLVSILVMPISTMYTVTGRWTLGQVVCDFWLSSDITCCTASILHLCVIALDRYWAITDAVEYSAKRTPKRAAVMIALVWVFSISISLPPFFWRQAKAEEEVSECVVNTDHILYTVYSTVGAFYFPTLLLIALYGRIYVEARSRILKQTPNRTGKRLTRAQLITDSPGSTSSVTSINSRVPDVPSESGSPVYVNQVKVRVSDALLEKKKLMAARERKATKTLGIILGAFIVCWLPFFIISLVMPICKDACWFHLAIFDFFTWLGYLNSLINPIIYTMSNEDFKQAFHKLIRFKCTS
The target of a further series is σ1 receptor (Cavia porcellus, UniProt Q60492). Put plainly: PDSP radioligand binding, σ1. Particulars: read-out: % inhibition at 10 µM; single concentration 10 µM.
Sequence of σ1 receptor (Q60492 whole entry): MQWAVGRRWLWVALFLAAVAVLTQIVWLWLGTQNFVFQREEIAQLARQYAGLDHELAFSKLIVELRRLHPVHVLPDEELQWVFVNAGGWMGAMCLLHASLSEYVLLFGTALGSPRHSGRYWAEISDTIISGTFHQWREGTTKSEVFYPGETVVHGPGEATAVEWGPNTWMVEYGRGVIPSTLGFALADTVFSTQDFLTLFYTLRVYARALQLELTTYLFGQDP
In series [3] the target is H1 histaminergic receptor (Homo sapiens, UniProt P35367). Put plainly: PDSP radioligand binding, H1. To be noted: read-out: % inhibition at 10 µM; single concentration 10 µM.
Sequence of H1 histaminergic receptor (P35367 whole entry): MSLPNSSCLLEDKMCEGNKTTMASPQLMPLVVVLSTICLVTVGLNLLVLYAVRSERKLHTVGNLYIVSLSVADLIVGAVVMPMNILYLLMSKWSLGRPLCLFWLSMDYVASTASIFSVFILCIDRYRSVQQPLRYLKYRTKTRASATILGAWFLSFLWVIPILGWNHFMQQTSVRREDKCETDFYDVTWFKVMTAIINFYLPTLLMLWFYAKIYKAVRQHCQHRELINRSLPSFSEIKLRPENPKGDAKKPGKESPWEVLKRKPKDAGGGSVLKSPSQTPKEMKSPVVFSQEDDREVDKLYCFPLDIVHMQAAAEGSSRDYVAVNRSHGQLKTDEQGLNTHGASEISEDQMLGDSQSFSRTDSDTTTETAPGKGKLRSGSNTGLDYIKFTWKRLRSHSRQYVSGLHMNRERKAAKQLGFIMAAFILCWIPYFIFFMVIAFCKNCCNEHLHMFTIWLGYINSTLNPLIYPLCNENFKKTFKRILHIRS
The next series concerns the target D3 dopaminergic receptor (Homo sapiens, UniProt P35462). Briefly: PDSP radioligand binding, D3. To be noted: read-out: % inhibition at 10 µM; single concentration 10 µM.
For series [4], the target named is T2, 5HT2C serotonergic receptor (Homo sapiens, UniProt P28335).
T2 sequence (P28335 33-458): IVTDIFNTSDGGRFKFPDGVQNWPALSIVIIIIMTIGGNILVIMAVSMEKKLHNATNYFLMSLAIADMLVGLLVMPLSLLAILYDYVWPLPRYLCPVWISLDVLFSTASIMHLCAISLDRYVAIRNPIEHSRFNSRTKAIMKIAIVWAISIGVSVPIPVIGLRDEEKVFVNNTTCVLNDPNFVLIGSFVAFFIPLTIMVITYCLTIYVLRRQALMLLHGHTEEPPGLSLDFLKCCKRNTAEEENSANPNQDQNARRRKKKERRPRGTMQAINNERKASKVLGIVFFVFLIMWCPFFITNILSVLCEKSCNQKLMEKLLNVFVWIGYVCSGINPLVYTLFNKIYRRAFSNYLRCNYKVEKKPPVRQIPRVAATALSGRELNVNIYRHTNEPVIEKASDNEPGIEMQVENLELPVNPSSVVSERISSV
Briefly: PDSP radioligand binding, 5HT2C. Particulars: for Ki: full concentration-response curves, n = 3-6 unless noted; for inhibition at 10 µM: read-out: % inhibition at 10 µM.

For series [5], the target named is 5HT1D serotonergic receptor (Homo sapiens, UniProt P28221). Briefly: PDSP radioligand binding, 5HT1D. Particulars: read-out: % inhibition at 10 µM; single concentration 10 µM.
Sequence of 5HT1D serotonergic receptor (P28221 whole entry): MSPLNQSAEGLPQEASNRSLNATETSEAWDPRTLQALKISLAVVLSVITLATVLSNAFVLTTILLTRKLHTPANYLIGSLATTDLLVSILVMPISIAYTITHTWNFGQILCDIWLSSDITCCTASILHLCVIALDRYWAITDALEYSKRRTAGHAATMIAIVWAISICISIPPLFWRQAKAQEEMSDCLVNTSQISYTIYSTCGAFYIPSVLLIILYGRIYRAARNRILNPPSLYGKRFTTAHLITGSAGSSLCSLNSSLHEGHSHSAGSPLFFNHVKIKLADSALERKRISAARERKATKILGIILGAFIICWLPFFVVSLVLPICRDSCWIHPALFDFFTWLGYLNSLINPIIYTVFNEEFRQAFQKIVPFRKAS
In series [6] the target is T3, M1 muscarinic acetylcholine receptor (Homo sapiens, UniProt P11229).
T3 sequence (P11229 1-460): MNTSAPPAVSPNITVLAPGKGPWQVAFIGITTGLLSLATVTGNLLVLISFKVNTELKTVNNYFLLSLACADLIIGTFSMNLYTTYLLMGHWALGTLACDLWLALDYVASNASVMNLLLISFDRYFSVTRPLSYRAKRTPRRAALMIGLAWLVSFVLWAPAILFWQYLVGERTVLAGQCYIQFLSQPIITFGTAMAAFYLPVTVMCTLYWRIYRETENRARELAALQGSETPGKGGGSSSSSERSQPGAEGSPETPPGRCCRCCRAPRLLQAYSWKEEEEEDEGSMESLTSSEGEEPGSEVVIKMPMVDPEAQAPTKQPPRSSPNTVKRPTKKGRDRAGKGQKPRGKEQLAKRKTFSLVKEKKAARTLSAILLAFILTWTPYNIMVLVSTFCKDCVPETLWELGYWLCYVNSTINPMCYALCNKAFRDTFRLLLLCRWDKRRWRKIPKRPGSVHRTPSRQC
Put plainly: PDSP radioligand binding, M1. To be noted: read-out: % inhibition at 10 µM; single concentration 10 µM.

The next series addresses hERG potassium channel (Homo sapiens, UniProt Q12809). Briefly: PDSP hERG functional assay. The series is classed as cell-based. Particulars: for inhibition at 10 µM: human.
For series [7], the target named is 5HT6 serotonergic receptor (Homo sapiens, UniProt P50406). Briefly: PDSP radioligand binding, 5HT6. To be noted: read-out: % inhibition at 10 µM; single concentration 10 µM.
Sequence of 5HT6 serotonergic receptor (P50406 whole entry): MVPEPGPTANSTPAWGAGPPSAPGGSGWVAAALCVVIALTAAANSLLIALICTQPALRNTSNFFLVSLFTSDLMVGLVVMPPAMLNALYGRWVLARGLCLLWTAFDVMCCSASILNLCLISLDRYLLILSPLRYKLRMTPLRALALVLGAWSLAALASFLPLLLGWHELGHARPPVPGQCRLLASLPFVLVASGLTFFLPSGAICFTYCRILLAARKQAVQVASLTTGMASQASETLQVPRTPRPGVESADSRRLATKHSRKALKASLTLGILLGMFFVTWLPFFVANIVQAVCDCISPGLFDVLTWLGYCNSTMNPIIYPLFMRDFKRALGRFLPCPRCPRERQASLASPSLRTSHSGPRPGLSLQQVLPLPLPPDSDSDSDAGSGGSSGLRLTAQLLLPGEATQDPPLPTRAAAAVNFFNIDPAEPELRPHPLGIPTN
For another series, the target named is κ opioid receptor (Homo sapiens, UniProt P41145). Put plainly: PDSP radioligand binding, κ opioid. Particulars: read-out: % inhibition at 10 µM.
Sequence of κ opioid receptor (P41145 whole entry): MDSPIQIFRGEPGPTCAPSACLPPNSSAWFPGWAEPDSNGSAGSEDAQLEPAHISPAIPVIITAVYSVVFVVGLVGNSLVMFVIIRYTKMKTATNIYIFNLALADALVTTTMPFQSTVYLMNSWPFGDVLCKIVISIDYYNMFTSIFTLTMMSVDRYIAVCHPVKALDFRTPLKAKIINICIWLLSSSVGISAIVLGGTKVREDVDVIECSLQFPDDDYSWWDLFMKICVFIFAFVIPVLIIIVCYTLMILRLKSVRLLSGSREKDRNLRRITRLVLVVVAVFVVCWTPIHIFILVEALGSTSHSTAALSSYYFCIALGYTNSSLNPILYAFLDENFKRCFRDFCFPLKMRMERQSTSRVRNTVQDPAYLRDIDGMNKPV
Series [8] concerns the target T4, M4 muscarinic acetylcholine receptor (Homo sapiens, UniProt P08173).
T4 sequence (P08173 1-479): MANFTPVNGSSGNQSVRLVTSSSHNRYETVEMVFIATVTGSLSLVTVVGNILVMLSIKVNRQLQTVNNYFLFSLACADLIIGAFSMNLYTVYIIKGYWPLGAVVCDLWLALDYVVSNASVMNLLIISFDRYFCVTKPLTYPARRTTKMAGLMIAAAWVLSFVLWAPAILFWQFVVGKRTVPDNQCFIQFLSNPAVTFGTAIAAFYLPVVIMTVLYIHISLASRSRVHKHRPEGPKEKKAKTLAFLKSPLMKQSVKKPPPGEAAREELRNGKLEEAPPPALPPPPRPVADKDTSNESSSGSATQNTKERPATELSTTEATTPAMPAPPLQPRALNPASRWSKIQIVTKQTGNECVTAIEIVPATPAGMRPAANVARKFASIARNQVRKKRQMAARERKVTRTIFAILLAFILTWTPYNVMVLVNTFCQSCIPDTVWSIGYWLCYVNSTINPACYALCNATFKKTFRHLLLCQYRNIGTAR
Put plainly: PDSP radioligand binding, M4. Particulars: read-out: % inhibition at 10 µM; single concentration 10 µM.

For the next series, the target named is T5, D4 dopaminergic receptor (Homo sapiens, UniProt P21917).
T5 sequence (P21917 1-419): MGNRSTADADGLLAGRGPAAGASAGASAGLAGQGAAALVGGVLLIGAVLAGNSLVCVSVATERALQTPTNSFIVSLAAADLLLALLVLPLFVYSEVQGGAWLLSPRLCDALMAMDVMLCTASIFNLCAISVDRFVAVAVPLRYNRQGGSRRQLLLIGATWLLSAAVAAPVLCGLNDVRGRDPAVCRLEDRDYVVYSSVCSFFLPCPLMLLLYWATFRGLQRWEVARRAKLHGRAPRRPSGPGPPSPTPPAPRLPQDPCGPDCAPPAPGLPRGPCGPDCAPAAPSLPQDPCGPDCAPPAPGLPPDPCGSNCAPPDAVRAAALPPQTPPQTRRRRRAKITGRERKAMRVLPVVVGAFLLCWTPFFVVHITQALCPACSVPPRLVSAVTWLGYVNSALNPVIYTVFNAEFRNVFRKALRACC
Put plainly: PDSP radioligand binding, D4. To be noted: read-out: % inhibition at 10 µM; single concentration 10 µM.

Series [9] concerns the target M3 muscarinic acetylcholine receptor (Homo sapiens, UniProt P20309). Put plainly: PDSP radioligand binding, M3. To be noted: read-out: % inhibition at 10 µM; single concentration 10 µM.

Where “and” joins values, the source holds several entries; their conditions need not be identical. Equal entries are not always repeated. Where two headings read alike, the source gives them in different places.

Sequence of hERG potassium channel (Q12809 whole entry): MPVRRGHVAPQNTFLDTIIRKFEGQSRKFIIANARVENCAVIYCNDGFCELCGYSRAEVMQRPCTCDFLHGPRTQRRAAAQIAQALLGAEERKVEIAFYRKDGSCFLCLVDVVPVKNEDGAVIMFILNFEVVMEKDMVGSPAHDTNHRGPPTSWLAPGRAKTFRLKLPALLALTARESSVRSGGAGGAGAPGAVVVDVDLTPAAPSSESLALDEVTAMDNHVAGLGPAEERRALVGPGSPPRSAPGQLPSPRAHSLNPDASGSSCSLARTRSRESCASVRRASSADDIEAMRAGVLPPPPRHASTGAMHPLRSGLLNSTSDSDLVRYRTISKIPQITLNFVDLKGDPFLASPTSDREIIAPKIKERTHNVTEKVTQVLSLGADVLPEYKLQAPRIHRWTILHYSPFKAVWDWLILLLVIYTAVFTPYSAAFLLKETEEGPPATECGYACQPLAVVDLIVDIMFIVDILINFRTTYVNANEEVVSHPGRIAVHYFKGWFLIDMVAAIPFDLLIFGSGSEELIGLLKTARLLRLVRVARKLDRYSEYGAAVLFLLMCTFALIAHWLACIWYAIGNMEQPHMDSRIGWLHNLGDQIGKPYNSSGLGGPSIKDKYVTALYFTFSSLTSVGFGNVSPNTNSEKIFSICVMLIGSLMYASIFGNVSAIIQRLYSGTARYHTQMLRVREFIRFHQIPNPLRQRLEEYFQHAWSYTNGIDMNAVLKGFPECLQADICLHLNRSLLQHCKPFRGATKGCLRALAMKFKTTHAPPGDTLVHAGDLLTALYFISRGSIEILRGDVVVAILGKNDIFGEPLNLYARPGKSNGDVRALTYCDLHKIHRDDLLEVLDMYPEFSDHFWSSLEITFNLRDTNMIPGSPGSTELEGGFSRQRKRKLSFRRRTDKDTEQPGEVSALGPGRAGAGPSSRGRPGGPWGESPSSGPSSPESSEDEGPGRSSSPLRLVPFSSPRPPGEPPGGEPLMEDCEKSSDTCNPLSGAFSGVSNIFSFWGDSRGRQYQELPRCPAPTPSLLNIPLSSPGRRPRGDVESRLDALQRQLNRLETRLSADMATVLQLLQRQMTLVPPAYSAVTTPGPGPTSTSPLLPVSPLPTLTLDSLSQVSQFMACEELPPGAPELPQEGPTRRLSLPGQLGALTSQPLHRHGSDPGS
Sequence of M3 muscarinic acetylcholine receptor (P20309 whole entry): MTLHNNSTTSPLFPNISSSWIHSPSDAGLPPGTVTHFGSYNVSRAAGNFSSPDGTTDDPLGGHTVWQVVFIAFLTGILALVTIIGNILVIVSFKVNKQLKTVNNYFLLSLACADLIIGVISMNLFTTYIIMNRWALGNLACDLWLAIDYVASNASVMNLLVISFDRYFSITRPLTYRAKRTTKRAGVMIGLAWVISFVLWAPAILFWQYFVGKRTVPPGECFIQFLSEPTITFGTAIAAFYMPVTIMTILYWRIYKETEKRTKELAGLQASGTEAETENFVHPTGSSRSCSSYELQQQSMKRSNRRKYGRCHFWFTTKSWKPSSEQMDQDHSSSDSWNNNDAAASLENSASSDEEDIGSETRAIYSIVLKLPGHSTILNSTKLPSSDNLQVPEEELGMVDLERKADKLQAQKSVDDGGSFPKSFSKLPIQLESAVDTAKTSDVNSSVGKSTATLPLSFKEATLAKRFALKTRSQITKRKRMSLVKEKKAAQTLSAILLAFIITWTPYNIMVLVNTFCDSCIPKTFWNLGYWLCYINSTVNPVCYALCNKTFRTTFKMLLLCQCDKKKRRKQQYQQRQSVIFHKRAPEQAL
Sequence of D3 dopaminergic receptor (P35462 whole entry): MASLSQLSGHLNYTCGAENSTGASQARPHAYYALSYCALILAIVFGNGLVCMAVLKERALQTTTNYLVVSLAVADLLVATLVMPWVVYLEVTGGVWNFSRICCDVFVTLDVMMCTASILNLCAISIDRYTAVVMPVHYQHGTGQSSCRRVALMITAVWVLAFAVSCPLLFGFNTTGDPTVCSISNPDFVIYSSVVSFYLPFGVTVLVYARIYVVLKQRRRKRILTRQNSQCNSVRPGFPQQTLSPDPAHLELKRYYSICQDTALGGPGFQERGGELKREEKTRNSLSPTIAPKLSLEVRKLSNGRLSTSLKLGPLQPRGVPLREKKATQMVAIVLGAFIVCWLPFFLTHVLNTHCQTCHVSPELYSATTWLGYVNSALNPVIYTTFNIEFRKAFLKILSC

In general, inhibition refers to the relative decrease from the control value, in per cent. One may read the Ki as the equilibrium dissociation constant of an inhibitor or competing ligand from its target. A lower Ki goes with tighter binding. On to `CNC(=O)[C@@]12C[C@@H]1[C@@H](n1cnc3c(NCc4cccc(Cl)c4)nc(Cl)nc31)[C@H](O)[C@@H]2O` [Compound 4], for which the inhibition at 10 µM in [1] stood at 14%; in series [2] it was 23%; on σ1 receptor, 2%; in [3] it was 6%; at D3 dopaminergic receptor, 22%; in series [4] (single concentration 10 µM), 95%. The inhibition at 10 µM turned out to be 31% in series [5]; 0% in series [6]; 2% at hERG potassium channel (single point 10 µM); 9% in series [7]; 6% at κ opioid receptor (single concentration 10 µM); 30% in series [8]. The inhibition at 10 µM on D4 dopaminergic receptor came out at 6%; in [9] it was 1%. Moreover, the Ki in series [4] is 120 nM and 122 nM.
The % inhibition is how much of the control response was suppressed. Low values mean a response near the control, high ones a response far below the control. As to `O[C@@H]1[C@H](O)[C@@H]2C[C@@H]2[C@H]1n1cnc2c(NC(C3CC3)C3CC3)nc(Cl)nc21` [Compound 10], the inhibition at 10 µM in series [1] stood at 15%; in [2], 0%; at σ1 receptor, 9%; in series [3], 0%; on D3 dopaminergic receptor it was 8%; in series [4] it was 49%. Moreover, the inhibition at 10 µM in series [5] is 18%; in [6], 0%; in series [7], 0%; at κ opioid receptor it was 0%; in series [8] it was 7%; at D4 dopaminergic receptor, 0%. The inhibition at 10 µM in [9] came to 0%. The molecule also came in with an inhibition constant (Ki) in series [4] of 1850 ± 460 nM. For the same molecule, the “% inhibition at 10 µM (hERG functional assay)” value at hERG potassium channel (single point 10 µM) was 4.5 ± 2.4%.
In the case of `CNC(=O)[C@@]12C[C@@H]1[C@@H](n1cnc3c(NCc4cccc(Cl)c4)nc(C#Cc4ccc(F)cc4)nc31)[C@H](O)[C@@H]2O` [Compound 2], the inhibition at 10 µM in series [1] is 0%; in series [2] it was 0%; on σ1 receptor, 2%; in series [3] it was 0%; on D3 dopaminergic receptor, 4%; in series [4] (single concentration 10 µM) it was 16%. For the same molecule, the inhibition at 10 µM in series [5] was determined as 21%; in [6], 12%; at hERG potassium channel (single point 10 µM), 5.8 ± 11.9%; in series [7], 36%; at κ opioid receptor (single concentration 10 µM), 20%; in series [8], 8%. Further, the inhibition at 10 µM was 0% at D4 dopaminergic receptor and 6% in series [9]. For the same molecule, the inhibitory constant (Ki) at hERG potassium channel (not binding) stood at 39500 nM.

These data come from paper PMC4032265 (PLoS ONE, 2014).
